The results in this text go back to patent US20150005288A1, “SUBSTITUTED PHENYLIMIDAZOPYRAZOLES AND USE THEREOF” (Bayer Intellectual Property GmbH, priority 2012, published 2015).

T1 sequence (Q02763 776-1124): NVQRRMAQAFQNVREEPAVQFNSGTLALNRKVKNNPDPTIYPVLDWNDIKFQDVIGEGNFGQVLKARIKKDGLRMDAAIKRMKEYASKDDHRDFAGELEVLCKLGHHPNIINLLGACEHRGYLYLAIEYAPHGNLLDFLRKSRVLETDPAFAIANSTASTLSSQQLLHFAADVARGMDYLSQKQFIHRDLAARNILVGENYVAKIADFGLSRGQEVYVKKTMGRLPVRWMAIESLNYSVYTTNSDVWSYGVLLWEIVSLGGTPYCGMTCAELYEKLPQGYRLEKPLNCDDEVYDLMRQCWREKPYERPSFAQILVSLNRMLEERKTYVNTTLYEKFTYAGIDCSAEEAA

This assay addresses T1, intracellular domain of human Tie2 (GST fusion protein) (Homo sapiens, UniProt Q02763).
T1 construct: intracellular domain of human Tie2 (amino acids 776-1124); made in house; host or cells: Baculovirus-infected insect cells (Hi5)
As to the kind of experiment: Tie2 kinase assay (Tie2-TR-FRET). In kind it is biochemical. The settings on record: ATP concentration 1 mM, in some cases means of several independent determinations. As to the method:
The Tie2-inhibitory activity of the substances according to the invention was determined with the aid of one of the Tie2-TR-FRET assays described in the sections below at an ATP concentration of 1 mM (TR-FRET=Time-Resolved Fluorescence Resonance Energy Transfer):
The enzyme used was a recombinant fusion protein of glutathione S-transferase (GST) and the intracellular domain of human Tie2 (amino acids 776-1124) which was expressed in Baculovirus-infected insect cells (Hi5) and was purified by affinity chromatography on glutathione-Sepharose. Alternatively, it is also possible to use commercially available GST-His6-Tie2 fusion protein (ProQinase GmbH, Freiburg im Breisgau, Germany). The substrate used for the kinase reaction was the biotinylated peptide biotin-Ahx-[…] (C-terminus in amide form) which is commercially available (for example from Biosyntan, Berlin, Germany).
For the assay, 50 nl of a 100-fold concentrated solution of the respective test substance in DMSO were pipetted into a black low-volume 384-well microtitre plate (Greiner Bio-One, Frickenhausen, Germany) 2 μl of a solution of the Tie2 fusion protein in assay buffer [50 mM HEPES/HCl pH 7, 10 mM MgCl2, 2.5 mM MnCl2, 1 mM dithiothreitol, 0.01% (v/v) Nonidet P-40, 0.1% (w/v) bovine serum albumin (BSA), 1× Complete EDTA-free protease inhibitor mixture (Roche)] were added, and the mixture was incubated for 15 min to allow pre-binding of the substance to the enzyme prior to the kinase reaction. The kinase reaction was then started by adding 3 μl of a solution of adenosine triphosphate (ATP, 1.67 mM→final concentration in 5 μl assay volume=1 mM) and substrate (1.67 μM→final concentration in 5 μl assay volume=1 μM) in assay buffer, and the resulting mixture was incubated for a reaction time of 60 min at 22° C. The concentration of the Tie2 fusion protein was adapted to the respective activity of the enzyme and adjusted such that the assay was carried out in the linear range. Typical concentrations were in the range of 30 ng/ml.
The reaction was stopped by addition of 5 μl of a solution of TR-FRET detection reagents [200 nM streptavidin-XL665 and 2 nM PT66-Eu chelate, a europium chelate-labelled anti-phosphotyrosine antibody (Perkin-Elmer); alternatively, it is also possible to use PT66-Tb cryptate (Cisbio Bioassays, Codolet, France)] in aqueous EDTA solution[90 mM EDTA, 0.28% (w/v) bovine serum albumin (BSA) in 50 mM HEPES pH 7.5]. The resulting mixture was incubated at 22° C. for 1 h to allow formation of the complex of the biotinylated phosphorylated substrate and the detection reagents. The amount of phosphorylated substrate was then determined by measuring the resonance energy transfer from PT66-Eu chelate to streptavidin-XL665. To this end, the fluorescence emissions at 620 nm and 665 nm after excitation at 350 nm were measured in a TR-FRET measuring instrument (for example Viewlux, Perkin-Elmer). The ratio of the emissions at 665 nm and at 620 nm was taken as a measure of the amount of phosphorylated substrate.
Usually, the test substance in question was tested on the same microtitre plate at […] different concentrations in the range from 20 μM to 0.073 nM (for example at 20 μM, 5.7 μM, 1.6 μM, 0.47 μM, 0.13 μM, 38 nM, 11 nM, 3.1 nM, 0.89 nM, 0.25 nM and 0.073 nM) in duplicate for each concentration. The dilution series were prepared prior to the assay at the stage of the 100-fold concentrated solution by serial dilution (the exact concentrations may vary depending on the pipettors used in each case). IC50 values were calculated using a 4-parameter fit, with the aid of inhouse software.
Table 1 below lists the IC50 values from this assay for individual working examples (in some cases as means of several independent individual determinations): […]
A word on the IC50: it is the concentration that inhibits the measured activity by half. On to `Cc1ccc(NC(=O)c2cc(CO)cc(S(F)(F)(F)(F)F)c2)cc1-n1ccn2nc(-c3cccnc3)cc12` [Example 31, 3-(Hydroxymethyl)-N-{4-methyl-3-[6-(pyridin-3-yl)-1H-imidazo[1,2-b]pyrazol-1-yl]phenyl}-5-(pentafluoro-λ^6-sulphanyl)benzamide], for which it took 1.1 nM to reach half-maximal inhibition (IC50).

As for `Cc1ccc(NC(=O)c2cc(CN3CCCC3)cc(S(F)(F)(F)(F)F)c2)cc1-n1ccn2nc(-c3cccnc3)cc12` [Example 33, N-{4-Methyl-3-[6-(pyridin-3-yl)-1H-imidazo[1,2-b]pyrazol-1-yl]phenyl}-3-(pentafluoro-λ^6-sulphanyl)-5-(pyrrolidin-1-ylmethyl)benzamide], 2.5 nM corresponded to half-maximal inhibition (IC50). This IC50 is about 2.3-fold higher than that of the molecule before. `Cc1ccc(NC(=O)c2cc(CN3CC[C@H](O)C3)cc(S(F)(F)(F)(F)F)c2)cc1-n1ccn2nc(-c3cccnc3)cc12` [Example 34, 3-{[(3S)-3-Hydroxypyrrolidin-1-yl]methyl}-N-{4-methyl-3-[6-(pyridin-3-yl)-1H-imidazo[1,2-b]-pyrazol-1-yl]phenyl}-5-(pentafluoro-λ^6-sulphanyl)benzamide] registered an IC50 of 2.1 nM. The figure for `Cc1ccc(NC(=O)c2cc(CN3CCNCC3)cc(S(F)(F)(F)(F)F)c2)cc1-n1ccn2nc(-c3cccnc3)cc12` [Example 35, N-{4-Methyl-3-[6-(pyridin-3-yl)-1H-imidazo[1,2-b]pyrazol-1-yl]phenyl}-3-(pentafluoro-λ^6-sulphanyl)-5-(piperazin-1-ylmethyl)benzamide] is 0.5 nM; for `Cc1ccc(NC(=O)c2cc(CN3CCN(C)CC3)cc(S(F)(F)(F)(F)F)c2)cc1-n1ccn2nc(-c3cccnc3)cc12` [Example 36, 3-[(4-Methylpiperazin-1-yl)methyl]-N-{4-methyl-3-[6-(pyridin-3-yl)-1H-imidazo[1,2-b]pyrazol-1-yl]phenyl}-5-(pentafluoro-λ^6-sulphanyl)benzamide] it is 0.3 nM. In turn, `Cc1ccc(NC(=O)c2cc(C3(O)CNC3)cc(S(F)(F)(F)(F)F)c2)cc1-n1ccn2nc(-c3cccnc3)cc12` [Example 37, 3-(3-Hydroxyazetidin-3-yl)-N-{4-methyl-3-[6-(pyridin-3-yl)-1H-imidazo[1,2-b]pyrazol-1-yl]-phenyl}-5-(pentafluoro-λ^6-sulphanyl)benzamide bis(trifluoroacetate)] gave an IC50 of 0.4 nM. As to `Cc1ccc(NC(=O)c2cc(C#N)cc(OC(F)(F)F)c2)cc1-n1ccn2nc(-c3cccnc3)cc12` [Example 38, 3-Cyano-N-{4-methyl-3-[6-(pyridin-3-yl)-1H-imidazo[1,2-b]pyrazol-1-yl]phenyl}-5-(trifluoromethoxy)benzamide], the IC50 came out at 15 nM. With `Cc1ccc(NC(=O)c2cccc(C(F)(F)F)c2)cc1-n1ccn2nc(-c3cccnc3)cc12` [Example 39, N-{4-Methyl-3-[6-(pyridin-3-yl)-1H-imidazo[1,2-b]pyrazol-1-yl]phenyl}-3-(trifluoromethyl)-benzamide] the figure was 320 nM; with `Cc1ccc(NC(=O)c2cc(N3CCN(C)CC3)cc(C(F)(F)F)c2)cc1-n1ccn2nc(-c3cccnc3)cc12` [Example 41, 3-(4-Methylpiperazin-1-yl)-N-{4-methyl-3-[6-(pyridin-3-yl)-1H-imidazo[1,2-b]pyrazol-1-yl]-phenyl}-5-(trifluoromethyl)benzamide], 35 nM. With `Cc1ccc(NC(=O)c2cc(N(C)CCCN(C)C)cc(C(F)(F)F)c2)cc1-n1ccn2nc(-c3cccnc3)cc12` [Example 42, 3-{[3-(Dimethylamino)propyl](methyl)amino}-N-{4-methyl-3-[6-(pyridin-3-yl)-1H-imidazo-[1,2-b]pyrazol-1-yl]phenyl}-5-(trifluoromethyl)benzamide], the IC50 is 1.5 nM. Turning to `Cc1ccc(NC(=O)c2cc(C(F)(F)F)cc(C(F)(F)F)c2)cc1-n1ccn2nc(-c3cccnc3)cc12` [Example 43, N-{4-Methyl-3-[6-(pyridin-3-yl)-1H-imidazo[1,2-b]pyrazol-1-yl]phenyl}-3,5-bis(trifluoromethyl)-benzamide], the IC50 stood at 56 nM. Against the preceding molecule, the IC50 is about 37-fold higher. `Cc1ccc(NC(=O)c2cc(C#N)cc(C(F)(F)F)c2)cc1-n1ccn2nc(-c3cccnc3)cc12` [Example 44, 3-Cyano-N-{4-methyl-3-[6-(pyridin-3-yl)-1H-imidazo[1,2-b]pyrazol-1-yl]phenyl}-5-(trifluoromethyl)benzamide] showed an IC50 of 130 nM. Take `Cc1ccc(NC(=O)c2ccc(F)c(C(F)(F)F)c2)cc1-n1ccn2nc(-c3cccnc3)cc12` [Example 45, 4-Fluoro-N-{4-methyl-3-[6-(pyridin-3-yl)-1H-imidazo[1,2-b]pyrazol-1-yl]phenyl}-3-(trifluoromethyl)benzamide]: the midpoint of inhibition, the IC50, lay at 740 nM. Regarding `Cc1ccc(NC(=O)c2cccc(C(F)(F)F)c2F)cc1-n1ccn2nc(-c3cccnc3)cc12` [Example 46, 2-Fluoro-N-{4-methyl-3-[6-(pyridin-3-yl)-1H-imidazo[1,2-b]pyrazol-1-yl]phenyl}-3-(trifluoromethyl)benzamide], the IC50 is 980 nM. `Cc1ccc(NC(=O)c2cc(-n3ccnc3C)cc(C(C)(C)C)c2)cc1-n1ccn2nc(-c3cccnc3)cc12` [Example 47, 3-tert-Butyl-5-(2-methyl-1H-imidazol-1-yl)-N-{4-methyl-3-[6-(pyridin-3-yl)-1H-imidazo[1,2-b]-pyrazol-1-yl]phenyl}benzamide] gave an IC50 of 0.3 nM. `Cc1ccc(NC(=O)c2cc(C(C)(C)C)cc(C(C)(C)O)c2)cc1-n1ccn2nc(-c3cccnc3)cc12` [Example 49, 3-tert-Butyl-5-(2-hydroxypropan-2-yl)-N-{4-methyl-3-[6-(pyridin-3-yl)-1H-imidazo[1,2-b]-pyrazol-1-yl]phenyl}benzamide] had an IC50 of 0.3 nM. This counts as sub-nanomolar. On to `Cc1ccc(NC(=O)c2cc(C#N)cc(C(C)(C)C)c2)cc1-n1ccn2nc(-c3cccnc3)cc12` [Example 50, 3-tert-Butyl-5-cyano-N-{4-methyl-3-[6-(pyridin-3-yl)-1H-imidazo[1,2-b]pyrazol-1-yl]phenyl}-benzamide], for which the IC50 was found to be 1.2 nM. With `Cc1cc(C)cc(C(=O)Nc2ccc(C)c(-n3ccn4nc(-c5cccnc5)cc34)c2)c1` [Example 52, 3,5-Dimethyl-N-{4-methyl-3-[6-(pyridin-3-yl)-1H-imidazo[1,2-b]pyrazol-1-yl]phenyl}benzamide], the IC50 was determined as 230 nM. With `Cc1ccc(NC(=O)c2cc(C(C)C)ccc2O)cc1-n1ccn2nc(-c3cccnc3)cc12` [Example 53, 2-Hydroxy-N-{4-methyl-3-[6-(pyridin-3-yl)-1H-imidazo[1,2-b]pyrazol-1-yl]phenyl}-5-(propan-2-yl)benzamide] the figure was 340 nM; with `Cc1ccc(NC(=O)c2cccc(-c3cccc(C#N)c3)c2)cc1-n1ccn2nc(-c3cccnc3)cc12` [Example 54, 3′-Cyano-N-{4-methyl-3-[6-(pyridin-3-yl)-1H-imidazo[1,2-b]pyrazol-1-yl]phenyl}biphenyl-3-carboxamide], 670 nM. With `Cc1ccc(NC(=O)c2cccc(-n3cccn3)c2)cc1-n1ccn2nc(-c3cccnc3)cc12` [Example 55, N-{4-Methyl-3-[6-(pyridin-3-yl)-1H-imidazo[1,2-b]pyrazol-1-yl]phenyl}-3-(1H-pyrazol-1-yl)-benzamide] the figure was 275 nM; with `Cc1ccc(NC(=O)c2cccc(N3CCCC3)c2)cc1-n1ccn2nc(-c3cccnc3)cc12` [Example 56, N-{4-Methyl-3-[6-(pyridin-3-yl)-1H-imidazo[1,2-b]pyrazol-1-yl]phenyl}-3-(pyrrolidin-1-yl)-benzamide], 52 nM.
